Data as given in patent US9206198B2, “Inhibitors of the renal outer medullary potassium channel” (Merck Sharp & Dohme Corp., priority 2012, dated 2015).

Experiments:
[1] = target: Kir1.1 (ROMK1) (Homo sapiens (Human), UniProt P48048); assay: Electrophysiology Assay (whole cell voltage clamp, IonWorks Quattro); format: cell-based; settings: Chinese hamster ovary cells stably expressing Kir1.1; block during voltage step to 0 mV
Protocol: Block of Kir1.1 (ROMK1) currents was examined by whole cell voltage clamp (Hamill et. al. Pfluegers Archives 391:85-100 (1981)) using the IonWorks Quattro automated electrophysiology platform (Molecular Devices, Sunnyvale, Calif.). Chinese hamster ovary cells stably expressing Kir1.1 channels were maintained in T-75 flasks in cell culture media in a humidified 10% CO2 incubator at 37° C. Prior to an experiment, Kir1.1 expression was induced by overnight incubation with 1 mM sodium butyrate. On the day of the experiment, cells were dissociated with 2.5 mL of Versene (Invitrogen 15040-066) for approximately 6 min at 37° C. and suspended in 10 mL of bath solution containing (in mM): 150 NaCl, 10 KCl, 2.7 CaCl2, 0.5 MgCl2, 5 HEPES, pH 7.4. After centrifugation, the cell pellet was resuspended in approximately 4.0 mL of bath solution and placed in the IonWorks instrument. The intracellular solution consisted of (in mM): 80 K gluconate, 40 KCl, 20 KF, 3.2 MgCl2, 3 EGTA, 5 Hepes, pH 7.4. Electrical access to the cytoplasm was achieved by perforation in 0.13 mg/mL amphotericin B for 4 min. Amphotericin B (Sigma A-4888) was prepared as a 40 mg/mL solution in DMSO. Voltage protocols and current recordings were performed using the IonWorks HT software/hardware system. Currents were sampled at 1 kHz. No correction for liquid junction potentials was used. The test pulse, consisting of a 100 ms step to 0 mV from a holding potential of −70 mV, followed by a 100 ms voltage ramp from −70 mV to +70 mV, was applied before and after a 6 min compound incubation period. Test compounds were prepared by diluting DMSO stock solutions into the bath solution at 3× the final concentration and placed in the instrument in 96-well polypropylene plates. Current amplitudes were measured using the IonWorks software. To assess compound potency, the fractional block during the voltage step to 0 mV was calculated in Microsoft Excel (Microsoft, Redmond, Calif.), and dose-response curves were fitted with Igor Pro 4.0 (WaveMetrics, Lake Oswego, Oreg.). Normally, a control compound is included to support that the assay is giving consistent results compared to previous measurements, although the control is not required to obtain the results for the test compounds.

[2] = target: hROMK (hKir1.1) (Homo sapiens (Human), UniProt P48048); assay: Thallium Flux Assay (ROMK channel functional thallium flux assay, FLIPR-Tetra); format: cell-based; settings: HEK293 cells stably expressing hROMK
Protocol: Cell Culture Conditions— HEK293 cells stably expressing hROMK (hKir1.1) were grown at 37° C. in a 10% CO2 humidified incubator in complete growth media: Dulbecco's Modified Eagle Medium supplemented with non-essential amino acids, Penicillin/Streptomycin/Glutamine, G418 and FBS. At >80% confluency, aspirate the media from the flask and rinse with 10 mL Calcium/Magnesium-free PBS. Add 5 mL of 1× trypsin (prepared in Ca/Mg Free PBS) to T-225 flask and return flask to 37° C./CO2 incubator for 2-3 minutes. To dislodge the cell, gently bang the side of the flask with your hand. Triturate the cells completely and then transfer the cells to 25 mL complete media. Centrifuge at 1,500 rpm for 6 min followed by resuspension in complete growth media and determine cell concentration. For typical re-seeding, 4E6 cells/T-225 flask will attain >80% confluency in 4 days. Under ideal growth conditions and appropriate tissue culture practices, this cell line is stable for 40-45 passages.
FluxOR Kit Components (Invitrogen F10017)
• FluxOR™ Reagent (Component A) • FluxOR™ Assay Buffer (Component B)—10× Concentrate • PowerLoad™ Concentrate (Component C)—100× Concentrate • Probenecid (Component D)—Lyophilized sample is kept at −20° C. Water soluble, 100×after solubilization in 1 mL water. Store at 4° C. • FluxOR™ Chloride-free Buffer (Component E)—5× Concentrate • Potassium sulfate (K2SO4) Concentrate (Component F)—125 mM in water. Store at 4° C. • Thallium sulfate (Tl2SO4) Concentrate (Component G)—50 mM in water. Store at 4° C. • DMSO (dimethyl sulfoxide, Component H)—1 mL (100%) Reagent Preparation: FluxOR Working Solutions • 1000× FluxOR™ Reagent: Reconstitute a vial of component A in 100 μl DMSO; Mix well; Store 10 μl aliquots at −20° C. • 1× FluxOR™ Assay Buffer: Dilute Component B 10-fold with water; Adjust pH to 7.4 with Hepes/NaOH; Filter and store at 4° C. • Probenecid/Assay Buffer: 100 mL of 1× FluxOR™ Assay Buffer; 1 mL of reconstituted component D; Store at 4° C. • Loading Buffer (per microplate): 10 μl 1000× FluxOR™ Reagent; 100 μl component C; 10 mL Probenecid/Assay Buffer • Compound Buffer (per microplate): 20 mL Probenecid/Assay Buffer; 0.3 mM ouabain (10 mM ouabain in water can be stored in amber bottle/aluminum foil at room temperature); Test compound • 1× FluxOR™ Chloride-Free Buffer: Prepare 1× working solution in water. Can be stored at room temperature • Stimulant Buffer (prepared at 5× final concentration in 1× FluxOR™ Chloride-Free Buffer): 7.5 mM Thallium sulfate and 0.75 mM Potassium sulfate (to give a final assay concentration of 3 mM Thallium 0.3 mM Potassium). Store at 4° C. when not in use. If kept sterile, this solution is good for months.
Assay Protocol—The ROMK channel functional thallium flux assay is performed in 384 wells, using the FLIPR-Tetra instrument. HEK-hKir1.1 cells are seeded in Poly-D-Lysine microplates and kept in a 37° C.-10% CO2 incubator overnight. On the day of the experiment, the growth media is replaced with the FluxOR™ reagent loading buffer and incubated, protected from light, at ambient temperature (23-25° C.) for 90 min. The loading buffer is replaced with assay buffer±test compound followed by 30 min incubation at ambient temperature, where the Thallium/Potassium stimulant is added to the microplate.
• 1. Seed HEK-hKir1.1 cells ([…] at 20,000 cells/well) in 384-well PDL coated Microplates • 2. Allow cells to adhere overnight in humidified 37° C./10% CO2 incubator • 3. Completely remove cell growth media from microplate and replace with 25 μl loading buffer • 4. Incubate Microplate at room temperature, protected form light, for 90 min • 5. Remove loading buffer and replace with 25 μl 1× Assay Buffer±test compound. • 6. Incubate microplate at room temperature, protected from light, for 30 min • 7. At FLIPR-Tetra 384: Add stimulant (Thallium/Potassium) solution to microplate and monitor fluorescence. Excitation=400 nm, Emission=460 & 580 nm. Collect data for 10 min.

Sequence of Kir1.1 (ROMK1) (P48048 whole entry, species assumed): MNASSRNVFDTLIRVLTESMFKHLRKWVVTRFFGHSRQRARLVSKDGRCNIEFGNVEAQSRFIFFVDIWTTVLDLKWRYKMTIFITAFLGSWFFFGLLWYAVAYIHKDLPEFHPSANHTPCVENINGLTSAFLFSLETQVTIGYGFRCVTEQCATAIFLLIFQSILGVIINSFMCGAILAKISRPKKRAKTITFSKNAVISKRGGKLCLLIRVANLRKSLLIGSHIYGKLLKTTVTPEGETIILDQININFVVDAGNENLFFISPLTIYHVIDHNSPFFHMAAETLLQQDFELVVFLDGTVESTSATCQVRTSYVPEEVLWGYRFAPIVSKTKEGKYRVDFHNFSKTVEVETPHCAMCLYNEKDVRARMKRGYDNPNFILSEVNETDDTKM
Sequence of hROMK (hKir1.1) (P48048 whole entry): as the sequence (P48048 whole entry, species assumed) above

| Compound | IC50 [1] | IC50 [2] |
| --- | --- | --- |
| O=C1C=C(N2CCC3(CCN(CC4OCCc5c4ccc4c5COC4=O)CC3)C2=O)CO1 (racemic) [Example 52] | 60 nM | 350 nM |
| CC1=C(N2CCC3(CCN(CC(O)c4ccc5c(c4F)COC5=O)CC3)C2=O)COC1=O (single isomer, unassigned) [Example 80] | 10 nM | 50 nM |
| O=C1C=C(N2CCC3(CCN(CCc4ccc5c(c4)COC5=O)CC3)C2=O)CO1 [Example 3] | 70 nM | 290 nM |
| Cc1c([C@H](O)CN2CCC3(CC2)CCN(C2=CC(=O)OC2)C3=O)ccc2c1COC2=O [Example 21] | 390 nM | 370 nM |
| Cc1c([C@@H](O)CN2CCC3(CC2)CCN(C2=C(F)C(=O)OC2)C3=O)ccc2c1COC2=O [Example 22] | 4 nM | 30 nM |
| Cc1c([C@@H](O)CN2CCC3(CCCN(C4=CC(=O)OC4)C3)CC2)ccc2c1COC2=O [Example 24] | 620 nM | 240 nM |
| CC1=C(N2CCC3(CCN(CC(NC4CCC4)c4ccc5c(c4C)COC5=O)CC3)C2=O)COC1=O (centres unmarked) [Example 56] | – | 370 nM |
| COCCNC(CN1CCC2(CC1)CCN(C1=C(C)C(=O)OC1)C2=O)c1ccc2c(c1C)COC2=O (centres unmarked) [Example 58] | – | 220 nM |
| CC1=C(N2CCC3(CCN(CC(NCCC#N)c4ccc5c(c4C)COC5=O)CC3)C2=O)COC1=O (centres unmarked) [Example 59] | – | 210 nM |
| CNC(CN1CCC2(CC1)CCN(C1=C(C)C(=O)OC1)C2=O)c1ccc2c(c1C)COC2=O (centres unmarked) [Example 60, 8-[2-(methylamino)-2-(4-methyl-1-oxo-1,3-dihydro-2-benzofuran-5-yl)ethyl]-2-(4-methyl-5-oxo-2,5-dihydrofuran-3-yl)-2,8-diazaspiro[4.5]decan-1-one] | – | 100 nM |
| Cc1c([C@@H](O)CN2CCC3(CC2)C(=O)N(C2=CC(=O)OC2)c2ccccc23)ccc2c1COC2=O [Example 65, 1′-[(2R)-2-hydroxy-2-(4-methyl-1-oxo-1,3-dihydro-2-benzofuran-5-yl)ethyl]-2-oxo-1-(5-oxo-2,5-dihydrofuran-3-yl)-1,2-dihydrospiro[indole-3,4′-piperidinium]] | – | 40 nM |
| CC1=C(N2C(=O)C3(CCN(C[C@H](O)c4ccc5c(c4C)COC5=O)CC3)CC2C2CC2)COC1=O (some centres unmarked) [Example 70] | – | 340 nM |
| COCC1=C(N2CCC3(CCN(C[C@H](O)c4ccc5c(c4C)COC5=O)CC3)C2=O)COC1=O [Example 71] | – | 70 nM |
| CC1=CC2(CCN(C[C@H](O)c3ccc4c(c3C)COC4=O)CC2)C(=O)N1C1=CC(=O)OC1 [Example 72] | – | 30 nM |
| CC1=CN(C2=C(C)C(=O)OC2)C(=O)C12CCN(C[C@H](O)c1ccc3c(c1C)COC3=O)CC2 [Example 73] | – | 80 nM |
| CC1=C(N2CCC3(CC4COCC(C3)N4C[C@H](O)c3ccc4c(c3C)COC4=O)C2=O)COC1=O (some centres unmarked) [Example 82] | – | 180 nM |

Results, then the molecule that gave them:

| IC50 [1] | IC50 [2] | Compound |
| --- | --- | --- |
| 20 nM | 20 nM | CC1=C(N2C(=O)C3(CCN(C[C@H](O)c4ccc5c(c4C)COC5=O)CC3)CC2C)COC1=O (single isomer, unassigned) [Example 30] |
| 20 nM | 10 nM | CCC1CC2(CCN(C[C@H](O)c3ccc4c(c3C)COC4=O)CC2)C(=O)N1C1=CC(=O)OC1 (single isomer, unassigned) [Example 66] |
| 30 nM | 20 nM | Cc1c([C@@H](O)CN2CCC3(CC2)CC(C2CC2)N(C2=CC(=O)OC2)C3=O)ccc2c1COC2=O (single isomer, unassigned) [Example 69] |
| 10 nM | 30 nM | CCc1c(C(O)CN2CCC3(CC2)CCN(C2=C(C)C(=O)OC2)C3=O)ccc2c1COC2=O (single isomer, unassigned) [Example 75] |
| 10 nM | 10 nM | CC1=C(N2CCC3(CCN(CC(O)c4ccc5c(c4C4CC4)COC5=O)CC3)C2=O)COC1=O (single isomer, unassigned) [Example 76] |
| 3 nM | 10 nM | CC1=C(N2CCC3(CCN(CC(O)c4ccc5c(c4Cl)COC5=O)CC3)C2=O)COC1=O (single isomer, unassigned) [Example 79] |
| 4 nM | 30 nM | Cc1c([C@@H](O)CN2CCC3(CC2)CCN(C2=CC(=O)OC2)C3=O)ccc2c1COC2=O [Example 5, 8-[(2R)-2-hydroxy-2-(4-methyl-1-oxo-1,3-dihydro-2-benzofuran-5-yl)ethyl]-2-(5-oxo-2,5-dihydrofuran-3-yl)-2,8-diazaspiro[4.5]decan-1-one] |
| 10 nM | 20 nM | CC1=C(N2CCC3(CCN(C[C@H](O)c4ccc5c(c4C)COC5=O)CC3)C2=O)COC1=O [Example 7, 8-[(2R)-2-hydroxy-2-(4-methyl-1-oxo-1,3-dihydro-2-benzofuran-5-yl)ethyl]-2-(4-methyl-5-oxo-2,5-dihydrofuran-3-yl)-2,8-diazaspiro[4.5]decan-1-one] |
| 10 nM | 10 nM | CC1=C(N2CCCC3(CCN(C[C@H](O)c4ccc5c(c4C)COC5=O)CC3)C2=O)COC1=O [Example 9, 9-[(2R)-2-hydroxy-2-(4-methyl-1-oxo-1,3-dihydro-2-benzofuran-5-yl)ethyl]-2-(4-methyl-5-oxo-2,5-dihydrofuran-3-yl)-1-oxo-2-aza-9-azoniaspiro[5.5]undecane] |
| 10 nM | 20 nM | Cc1c([C@@H](O)CN2CCC3(CCCN(C4=CC(=O)OC4)C3=O)CC2)ccc2c1COC2=O [Example 23] |
| 10 nM | 10 nM | Cc1c([C@@H](O)CN2CCC3(CC2)CCN(C2=C(Cl)C(=O)OC2)C3=O)ccc2c1COC2=O [Example 25] |
